Holding throughout (format): in vivo, mice (Std:ddY, male)
Test [1] relates to pain threshold (tail-pressure). The test is described as follows: Analgesic activity by the tail-pressure method (s.c.). The following applies: mouse, 10 mg/10 ml at 10 ml/kg s.c., 1 hour after administration, mean ± standard error. The method, then: (1) Measurement of Analgesic Activity by the Tail-Pressure Method
Std:ddY Strain male mice (20-25 g) were fasted for one day before the experiment, and were used. After test compounds shown in Table 1 was formed to a salt with tartaric acid, this salt was dissolved in 0.9% physiological saline solutions at the rate of 10 mg/10 ml to give the test compoun d solution . As a control, 0.9% physiological saline solution was used. A tail-pressure apparatus was used in this experiments. Before the administration of test compounds, the pain threshold was measured twice at intervals of 30 minutes and those mice indicating a pain threshold of 50 to 100 mmHg were selected and used. The pain threshold of each mouse was measured at 1 hour after test compound solution mentioned above was administered at 10 ml/kg, s.c. 0.9% Physiological saline solution as a control was administered at 10 ml/kg, s.c . The results were described as an inhibition rate (%) obtained from the following equation. Cutoff level of pressure was defined to be 230 mmHg for the prevention of the damage of mouse tail.
Inhibition rate (%)=(A-B)×100/(C-B)
A: Pain threshold (mmHg) after the administration of test compound solution
B: Pain threshold (mmHg) before the administration of test compound solution
C: Cutoff pressure (230 mmHg)

Test [2] relates to pain threshold (tail-pressure). The test is described as follows: Tail-pressure method, comparison with morphine (i.v.). The following applies: for Inhibition rate: mean ± standard error. How it is done:
(2) Comparison with Morphine
Std:ddY Strain male mice (20-25 g) were fasted for one day before the experiment, and were used. In this experiment, the tartaric acid salt of a compound of number (2) in Table 1 and morphine hydrochloride as a possitive control were used. This tartaric acid salt was dissolved in 0.9% physiological saline solution at the rates of 5 mg/2 ml, 3 mg/2 ml and 1 mg/2 ml. Morphine hydrochloride was dissolved in 0.9% physiological saline solution at the rates of 5 mg/2 ml, 3 mg/2 ml and 1 mg/2 ml. As a negative control, 0.9% phisiological saline solution was used. A tail-pressure apparatus was used in this experiments. Before the administration of test compounds, the pain threshold was measured twice at intervals of 30 minutes and those mice indicating a pain threshold of 50 to 100 mmHg were selected and used. The pain threshold of each mouse was measured at 10, 20 and 30 minutes after test compound solution mentioned above was administered at 2 ml/kg, i.v. 0.9% Physiological saline solution as a control was administered i.v. The results were described as an inhibition rate (%) indicating in the preceding paragraph (1).

Test [3] relates to pain threshold (tail-pressure). Briefly: Tail-pressure method, experiment combined with morphine administration. The conditions noted are these: for Inhibition rate: mean ± standard error, n = 7. How it is done: (3) Experiment Combined with Morphine Administration
Std:ddY Strain male mice (20-25 g) were fasted for one day before the experiment, and were used. In this experiment, the tartaric acid salt of a compound of number (2) in Table 1 and morphine hydrochloride were used. The tartaric acid salt of a compound of number (2) was dissolved in 0.9% physiological saline solution at the rate of 7 mg/10 ml. Morphine hydrochloride was dissolved in 0.9% physiological saline solution at the rates of 5 mg/2 ml, 3 mg/2 ml and 1 mg/2 ml. As a control, 0.9% phisiological saline solution was used. A tail-pressure apparatus was used in this experiments. Before the administration of test compounds, the pain threshold was measured twice at intervals of 30 minutes and those mice indicating a pain threshold of 50 to 100 mmHg were selected and used. Mice was divided in the following four groups, (i) control group, (ii) the administration group of the tartaric acid salt of a compound of number (2), (iii) the administration group of morphine hydrochloride and (iv) the combined administration group with the tartaric acid salt of a compound of number (2) and morphine hydrochloride. In the administration group of the tartaric acid salt of a compound of number (2), 0.9% physiological saline solution of this tartaric acid salt mentioned above was injected s.c. at the rate of 10 ml/kg and, 30 minutes later, 0.9% physiological saline solution was injected i.v. at the rate of 2 ml/kg. In the administration group of morphine hydrochloride, 0.9% physiological saline solution was injected s.c. at the rate of 10 ml/kg and, 30 minutes later, the above physiological saline solution of morphine hydrochloride was injected i.v. at the rate of 2 ml/kg. In the combined administration group with the tartaric acid salt of a compound of number (2) and morphine hydrochloride,the above physiological saline solution of the tartaric acid salt of a compound of number (2) was injected s.c. at the rate of 10 ml/kg and, 30 minutes later, the above physiological saline solution of morphine hydrochloride was injected i.v. at the rate of 2 ml/kg. In control group, 0.9% physiological saline solution was injected s.c. at the rate of 10 ml/kg and, 30 minutes later, 0.9% physiological saline solution was injected i.v. at the rate of 2 ml/kg. Each pain threshold was measured 10, 20 and 30 minutes after an intravenous injection. The results were described in Table 9 as an inhibition rate (%) indicating in the preceding paragraph (1).

Regarding `CCN1CC2(COC)C(O)CC(OC)C34C5CC6(O)C(OC)C(OC(C)=O)C(O)(C5C6OC(=O)c5ccc(Cl)cc5)C(C(OC)C23)C14` (stereo not drawn) [(2), 15-O-acetyl-14-O-p-chlorobenzoylaconine], the “Inhibition rate (tail-pressure method)” value in test [1] is 43 ± 10%. Besides, the Inhibition rate is given as 5 ± 4% in test [2] (1 mg/kg i.v., 10 minutes); 4 ± 4% in test [2] (1 mg/kg i.v., 20 minutes); 2 ± 3% in test [2] (1 mg/kg i.v., 30 minutes); 14 ± 15% in test [2] (3 mg/kg i.v., 10 minutes); 16 ± 10% in test [2] (3 mg/kg i.v., 20 minutes); 12 ± 12% in test [2] (3 mg/kg i.v., 30 minutes). Moreover, the Inhibition rate in test [2] (5 mg/kg i.v., 10 minutes) was found to be 38 ± 13%; in test [2] (5 mg/kg i.v., 20 minutes), 27 ± 6%; in test [2] (5 mg/kg i.v., 30 minutes), 22 ± 7%; in test [3] (compound (2) 7 mg/kg s.c. alone (morphine 0), 10 min after i.v. injection) it was 30 ± 11%; in test [3] (compound (2) 7 mg/kg s.c. alone (morphine 0), 20 min after i.v. injection), 35 ± 12%; in test [3] (compound (2) 7 mg/kg s.c. alone (morphine 0), 30 min after i.v. injection), 37 ± 11%. Also, the Inhibition rate in test [3] (compound (2) 7 mg/kg s.c. combined with morphine 1 mg/kg i.v., 10 min) stood at 31 ± 12%; in test [3] (compound (2) 7 mg/kg s.c. combined with morphine 1 mg/kg i.v., 20 min) it was 36 ± 10%; in test [3] (compound (2) 7 mg/kg s.c. combined with morphine 1 mg/kg i.v., 30 min), 32 ± 7%; in test [3] (compound (2) 7 mg/kg s.c. combined with morphine 3 mg/kg i.v., 10 min) it was 47 ± 8%; in test [3] (compound (2) 7 mg/kg s.c. combined with morphine 3 mg/kg i.v., 20 min), 50 ± 9%; in test [3] (compound (2) 7 mg/kg s.c. combined with morphine 3 mg/kg i.v., 30 min), 38 ± 12%. Besides, the Inhibition rate in test [3] (compound (2) 7 mg/kg s.c. combined with morphine 5 mg/kg i.v., 10 min) is 73 ± 13%; in test [3] (compound (2) 7 mg/kg s.c. combined with morphine 5 mg/kg i.v., 20 min), 77 ± 9%; in test [3] (compound (2) 7 mg/kg s.c. combined with morphine 5 mg/kg i.v., 30 min), 78 ± 9%. In test [2] (mouse, i.v.), the “analgesic activity compared with morphine, in words” value is recorded as “had an equal analgesic activity in its strength to morphine”. Also, the “effect on the analgesic effect of morphine, in words” value in test [3] (mouse, compound s.c., morphine i.v.) is listed as “greatly potentiated the analgesic effect of morphine”.
